Measured values: US10745433B2, “Compounds for inhibiting cancer and virus” (priority 2016, dated 2020)
“Also recorded” adds a separate entry of the source. Read-outs that look alike come from different tables or passages of the source.

What was measured:
PC3 = assay: Growth inhibition assay (MTT), PC3; type: cell-based; conditions: Homo sapiens
Description: (§1) The compounds of the invention were subjected to growth inhibition assay. Cells were seeded in 96-well plastic plates and exposed to the compounds of the invention for 72 hours. Cell viability was assessed using the 3-(4,5-dimethylthiazol-2-yl)-2,5-diphenyltetrazolium bromide assay.

MKN45 = assay: Growth inhibition assay (MTT), MKN45; type: cell-based; conditions: Homo sapiens
Description: as §1

N87 = assay: Growth inhibition assay (MTT), N87; type: cell-based
Description: as §1

LNCap = assay: Growth inhibition assay (MTT), LNCap; type: cell-based; conditions: Homo sapiens
Description: as §1

DU145 = assay: Growth inhibition assay (MTT), DU145; type: cell-based; conditions: Homo sapiens
Description: as §1

HCT116 = assay: Growth inhibition assay (MTT), HCT116; type: cell-based; conditions: Homo sapiens
Description: as §1

MIAPACA = assay: Growth inhibition assay (MTT), MIAPACA; type: cell-based; conditions: Homo sapiens, MIA PaCa-2, 72 hours
Description: as §1

MCF-7 = assay: Growth inhibition assay (MTT), MCF-7; type: cell-based; conditions: Homo sapiens
Description: as §1

Panc-1 = assay: Growth inhibition assay (MTT), Panc-1; type: cell-based; conditions: Homo sapiens, Panc-1, Pancreatic cancer, 72 hours
Description: as §1

HT29 = assay: Growth inhibition assay (MTT), HT29; type: cell-based; conditions: Homo sapiens
Description: as §1

[1] = Metabolic stability in dog liver microsomes; type: in vitro ADME; conditions: FIG. 3
[2] = system: Zika virus (PRVABC59 strain); assay: Zika animals study; type: in vivo
Description: The Zika sensitive female mice: ROSA, STAT1^−/− strain was used. MPT0L167 was used to pre-treat the mice for one day. 4*10^7 cells (U-87 MG human glioblastoma cell with infection with Zika virus (PRVABC59 strain)) were injection in mice. After infection, MPT0L167 was administered with 100 mg/kg to the mice by po,qd. The virus detection in serum at day 3. The concentration of virus in serum was detected by Viralplaque assays.

[3] = Pharmacokinetic study (PK), i.v. in rats; type: in vivo; conditions: 2 mg/kg i.v.
Description: 2 mg/kg of niclosamide (MPT0L166) and MPT0L167, MPT0L180 and MPT0L196 were each independently given to five rats by i.v. The blood samples were taken from the rats after 0.03 hour, 0.08 hour, 0.25 hour, 0.5 hour, 1 hour, 2 hours, 4 hours, 6 hour, 8 hours and 24 hours. LC-MS/MS was used to detect the concentration of MPT0L167 in blood.

[4] = system: human MDA-MB-231 breast adenocarcinoma; assay: MDA-MB-231 xenograft animal model; type: in vivo; conditions: oral, female nude mice; for body weight: FIG. 1(B)
Source text: (§2) Anti-cancer Activity Evaluation of the Compounds of the Invention (MPT0L167 and MPT0L179) Against Human MDA-MB-231 Breast Cancer in MDA-MB-231 Xenograft Animal Model and Human Colorectal Cancer HCT116 Xenograft Model […] This study utilized five groups of mice (n=7-8) bearing established human MDA-MB-231 breast adenocarcinoma with mean volumes of ˜250 mm^3.

[5] = Metabolic stability in rat liver microsomes; type: in vitro ADME; conditions: FIG. 3
[6] = Metabolic stability in human liver microsomes; type: in vitro ADME; conditions: FIG. 3
[7] = system: human HCT116 colorectal cancer; assay: Human colorectal cancer HCT116 xenograft model; type: in vivo; conditions: oral, female nude mice; for body weight: FIG. 2(B)
Source text: as §2, with “HCT116 colorectal cancer” for “MDA-MB-231 breast adenocarcinoma”, “˜200” for “˜250”

[8] = PC-3, PC3, Prostate cancer, 72 hours, MTT, read-out: IC50
[9] = MKN-45, MKN45, Gastric cancer, 72 hours, MTT, read-out: IC50
[10] = N87, Gastric cancer, 72 hours, MTT, read-out: IC50
[11] = LNCap, Prostate cancer, 72 hours, MTT, read-out: IC50
[12] = DU-145, DU145, Prostate cancer, 72 hours, MTT, read-out: IC50
[13] = HCT-116, HCT116, Colon cancer, 72 hours, MTT, read-out: IC50
[14] = MCF7, MCF-7, Breast cancer, 72 hours, MTT, read-out: IC50
[15] = HT-29, HT29, Colon cancer, 72 hours, MTT, read-out: IC50

For `O=C(Nc1ccc([N+](=O)[O-])c(C(F)(F)F)c1)c1cc(Cl)ccc1O`, the melting point was 172.4 to 174 °C.
With `O=C(Nc1ccc([N+](=O)[O-])cc1Cl)c1cc(Cl)ccc1O` [#166, niclosamide, reference compound] the IC50 (PC3; [8]) was 1.04 µM, the IC50 (MKN45; [9]) was over 25 µM and the IC50 (N87; [10]) was 0.14 µM. It also gave an IC50 (LNCap; [11]) of 0.97 µM, an IC50 (DU145; [12]) of over 10 µM and an IC50 (HCT116; [13]) of 5.64 µM. It also gave an IC50 (MIAPACA) of 1.17 µM, an IC50 (MCF-7; [14]) of 3.69 µM and an IC50 (Panc-1) of 0.43 µM. The IC50 (HT29; [15]) was 31.1 µM.
For `O=C(Nc1ccc([N+](=O)[O-])cc1Cl)c1cc(Cl)ccc1OC1OC(CO)C(O)C(O)C1O` (centres unmarked) [MPT0L167, 5-Chloro-N-(2-chloro-4-nitro-phenyl)-2-(3,4,5-trihydroxy-6-hydroxymethyl-tetrahydro-pyran-2-yloxy)-benzamide], the IC50 (PC3; [8]) was over 25 µM, the IC50 (MKN45; [9]) was over 25 µM and the “metabolic stability compared with MPT0L166” value [1] was “more stable than MPT0L166”. It also gave a melting point of 212.6 to 213.2 °C, an IC50 (N87; [10]) of over 25 µM and an IC50 (LNCap; [11]) of over 25 µM. The IC50 (DU145; [12]) was over 25 µM, the “concentration of virus in serum (Viralplaque assays)” value ([2]; female ROSA, STAT1−/− mice, 100 mg/kg po,qd, serum at day 3, FIG. 4(A)) was “inhibition of Zika virus infection; also recorded: significantly inhibits Zika virua growth” and the body weight ([2]; mouse, in vivo, po, 100 mg/kg) was “does not significant reduce body weight; also recorded: not significantly changed”. For the same compound, the “half-life in vivo compared with niclosamide (MPT0L166)” value [3] was “longer half-life than MPT0L166”, the “AUC % Extrap obs” value ([3]; mean) was 1.15% and the AUC(0-inf) ([3]; rat, blood, iv, mean) was 587 ng·h/mL. For the same compound, the AUC(0-t) ([3]; rat, blood, iv, mean) was 580 ng·h/mL, the Cmax ([3]; rat, blood, iv, mean) was 3880 ng/mL and the MRT inf ([3]; rat, blood, iv, mean) was 1.4 h. It also gave a Tmax ([3]; rat, blood, iv, mean) of 1.8 min, a half-life ([3]; rat, blood, iv, mean) of 7.38 h and a clearance ([3]; rat, blood, iv, mean, read-out: CL obs (converted)) of 59.1 mL/min/kg. For the same compound, the Vd ([3]; rat, blood, iv, mean, read-out: VZ obs) was 37.3 L/kg, the tumor volume ([4]; FIG. 1(A)) was “significantly reduces tumor volume” and the body weight [4] was “does not significantly reduce body weight”. For the same compound, the body weight ([4]; listed as MPLOL167) was “did not exhibit significant change”, the IC50 (HCT116; [13]) was over 50 µM and the IC50 (MCF-7; [14]) was over 25 µM. The IC50 (HT29; [15]) was over 50 µM, the “metabolic stability compared with MPT0L166” value [5] was “more stable than MPT0L166” and the “metabolic stability compared with MPT0L166” value [6] was “more stable than MPT0L166”. The tumor volume ([7]; FIG. 2(A)) was “significantly reduces tumor volume”, the body weight [7] was “does not significantly reduce body weight” and the body weight ([7]; listed as MPLOL167) was “did not exhibit significant change”.
With `CC(=O)OCOc1ccc(Cl)cc1C(=O)Nc1ccc([N+](=O)[O-])cc1Cl` [MPT0L180, Acetic acid 4-chloro-2-(2-chloro-4-nitro-phenylcarbamoyl)-phenoxymethyl ester] the IC50 (PC3; [8]) was over 25 µM, the IC50 (MKN45; [9]) was over 25 µM and the melting point was 195.5 to 197.2 °C. It also gave an IC50 (N87; [10]) of over 25 µM, an IC50 (LNCap; [11]) of 2.44 µM and an IC50 (DU145; [12]) of over 25 µM. It also gave an IC50 (HCT116; [13]) of over 50 µM, an IC50 (MCF-7; [14]) of over 25 µM and an IC50 (HT29; [15]) of over 50 µM.
With `O=C(Nc1ccc([N+](=O)[O-])cc1Cl)c1cc(Cl)ccc1OC(=O)N1CCC(N2CCCCC2)CC1` [MPT0L196, [1,4′]Bipiperidinyl-1′-carboxylic acid 4-chloro-2-(2-chloro-4-nitro-phenylcarbamoyl)-phenyl ester] the IC50 (PC3; PC-3, 72 h) was over 25 µM, the IC50 (MKN45; MKN-45, 72 h) was over 25 µM and the melting point was 216.3 to 217.9 °C. For the same compound, the IC50 (N87; 72 h) was over 25 µM, the IC50 (LNCap; LNCaP, 72 h) was over 25 µM and the IC50 (DU145; DU-145, 72 h) was over 25 µM. It also gave an IC50 (HCT116; HCT-116, 72 h) of over 50 µM, an IC50 (MCF-7; MCF7, 72 h) of over 25 µM and an IC50 (HT29; HT-29, 72 h) of over 50 µM.
